Measured values reported in patent US9221822B2, “Thiazolopyrimidine modulators as immunosuppressive agents” (Katholieke Universiteit Leuven, K.U.Leuven R&D, priority 2009, dated 2015).

What follows are compounds tested on Human peripheral blood mononuclear cells (PBMCs) as Responder cells, RPMI 1788 Stimulator cells (assay: Mixed Lymphocyte Reaction (MLR) test). Details: Homo sapiens, RPMI-1788, lowest concentration giving 50% inhibition of the MLR; 6 days coculture, 3H-thymidine incorporation.
Assay type: cell-based
Procedure, shortened: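 Human PBMC responders (0.12×10^6) were cocultured 6 days with mitomycin C-treated RPMI 1788 stimulators (0.045×10^6) and compound in RPMI 1640 with 10% FCS, in triplicate. A ^3H-thymidine pulse on day 5, harvested 18 h later, measured proliferation (cpm), converted to % inhibition versus a compound-free MLR.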

| Structure (SMILES) | IC50 |
| --- | --- |
| O=C(COc1ccc(Cl)cc1)N1CCN(c2ncnc3sc(-c4ccc(F)cc4)nc23)CC1 [Example 301, 1-(4-(2-(4-fluorophenyl)thiazolo[5,4-d]pyrimidin-7-yl)piperazin-1-yl)-2-(4-chlorophenoxy)ethanone] | 670 nM |
| O=C(O)c1nc(N2CCN(C(=O)COc3ccc(Cl)cc3)CC2)c2cc(-c3ccc(F)cc3)sc2n1 [Example 357, 4-(4-(2-(4-chlorophenoxy)acetyl)piperazin-1-yl)-6-(4-fluorophenyl)thieno[2,3-d]pyrimidine-2-carboxylic acid] | > 10000 nM |
| Nc1nc(N2CCN(C(=O)CCc3ccc(F)cc3)CC2)c2nc(-c3ccc(F)cc3)sc2n1 [Example 236, 1-(4-(5-amino-2-(4-fluorophenyl)thiazolo[5,4-d]pyrimidin-7-yl)piperazin-1-yl)-3-(4-fluorophenyl)propan-1-one] | 890 nM |
| Nc1nc(N2CCN(C(=O)COc3ccc(Cl)cc3)CC2)c2cc(-c3ccccc3)sc2n1 [Example 329, 1-(4-(2-amino-6-phenylthieno[2,3-d]pyrimidin-4-yl)piperazin-1-yl)-2-(4-chlorophenoxy)ethanone] | 330 nM |
| Nc1nc(N2CCN(C(=O)Cc3ccc(Cl)cc3)CC2)c2nc(CCc3ccc(F)cc3)sc2n1 [Example 132, 5-amino-2-[2-(4-fluorophenyl)ethyl]-7-(4-[2-(4-chlorophenyl)acetyl]piperazin-1-yl)-thiazolo[5,4-d]pyrimidine] | 440 nM |
| Nc1nc(N2CCN(C(=O)COc3ccc(Cl)cc3)CC2)c2nc(-c3ccc(Cl)cc3)sc2n1 [Example 123, 5-amino-7-[4-(4-chlorophenoxyacetyl)piperazin-1-yl]-2-(4-chlorophenyl)thiazolo[5,4-d]pyrimidine] | 260 nM |
| Nc1nc(N2CCN(C(=O)COc3ccc(Cl)cc3Cl)CC2)c2nc(-c3ccc(F)cc3)sc2n1 [Example 212, 1-(4-(5-amino-2-(4-fluorophenyl)thiazolo[5,4-d]pyrimidin-7-yl)piperazin-1-yl)-2-(2,4-dichlorophenoxy)ethanone] | 375 nM |
| Nc1nc(N2CCN(C(=O)COc3ccc(Cl)cc3)CC2)c2nc(-c3ccc(Br)cc3)[nH]c2n1 [Example 391, 1-(4-(2-amino-8-(4-bromophenyl)-9H-purin-6-yl)piperazin-1-yl)-2-(4-chlorophenoxy)ethanone] | 260 nM |
| CCCCc1nc(N2CCN(C(=O)COc3ccc(Cl)cc3)CC2)c2cc(-c3ccc(F)cc3)sc2n1 [Example 313, 1-(4-(2-butyl-6-(4-fluorophenyl)thieno[2,3-d]pyrimidin-4-yl)piperazin-1-yl)-2-(4-chlorophenoxy)ethanone] | 1330 nM |
| Nc1nc(N2CCN(C(=O)Cc3cccs3)CC2)c2nc(-c3ccc(F)cc3)[nH]c2n1 [Example 403, 1-(4-(2-amino-8-(4-fluorophenyl)-9H-purin-6-yl)piperazin-1-yl)-2-(thiophen-2-yl)ethanone] | 7080 nM |
| Cc1cccc(OCC(=O)N2CCN(c3nc(N)nc4sc(-c5ccccc5)cc34)CC2)c1 [Example 371, 1-(4-(2-amino-6-phenylthieno[2,3-d]pyrimidin-4-yl)piperazin-1-yl)-2-(m-tolyloxy)ethanone] | 210 nM |
| CCOc1nc(N)nc2sc(Cc3ccc(F)cc3)nc12 [Example 31, 7-ethoxy-2-(4-fluorobenzyl)thiazolo[5,4-d]pyrimidin-5-amine] | 9700 nM |
| O=C(COc1ccc(Cl)cc1)N1CCN(c2nc(-c3ccccc3)nc3sc(-c4ccc(F)cc4)cc23)CC1 [Example 352, 2-(4-chlorophenoxy)-1-(4-(6-(4-fluorophenyl)-2-phenylthieno[2,3-d]pyrimidin-4-yl)piperazin-1-yl)ethanone] | > 10000 nM |
| Nc1nc(N2CCN(C(=O)Nc3ccc(Br)cc3)CC2)c2nc(-c3ccc(F)cc3)sc2n1 [Example 218, 4-(5-amino-2-(4-fluorophenyl)thiazolo[5,4-d]pyrimidin-7-yl)-N-(4-bromophenyl)piperazine-1-carboxamide] | 177 nM |
| Nc1nc(N2CCN(C(=O)COc3ccc(Cl)cc3)CC2)c2nc(-c3ccc(F)cc3)[nH]c2n1 [Example 389, 1-(4-(2-amino-8-(4-fluorophenyl)-9H-purin-6-yl)piperazin-1-yl)-2-(4-chlorophenoxy)ethanone] | 810 nM |
| Nc1nc(N2CCN(C(=O)COc3ccc(OC(F)(F)F)cc3)CC2)c2nc(CCc3ccc(F)cc3)sc2n1 [Example 226, 1-(4-(5-amino-2-(4-fluorophenethyl)thiazolo[5,4-d]pyrimidin-7-yl)piperazin-1-yl)-2-(4-(trifluoromethoxy)phenoxy)ethanone] | 7120 nM |
| CC(=O)N1CCN(c2nc(N)nc3oc(-c4ccc(F)cc4)nc23)CC1 [Example 191, 5-amino-2-(4-fluorophenyl)-7-(4-acetylpiperazin-1-yl)-oxazolo[5,4-d]pyrimidine] | > 10000 nM |
| CSc1nc2c(N3CCN(C(=O)COc4ccc(Cl)cc4)CC3)nc(N)nc2s1 [Example 115, 5-amino-7-[4-(4-chlorophenoxyacetyl)piperazin-1-yl]-2-methylthio-thiazolo[5,4-d]pyrimidine] | > 10000 nM |

| Structure (SMILES) | IC50 |
| --- | --- |
| COc1ccc(OCC(=O)N2CCN(c3nc(N)nc4sc(CCc5cccc(OC)c5)nc34)CC2)cc1 [Example 253, 1-(4-(5-amino-2-(3-methoxyphenethyl)thiazolo[5,4-d]pyrimidin-7-yl)piperazin-1-yl)-2-(4-methoxyphenoxy)ethanone] | 710 nM |
| Nc1nc(N2CCN(C(=O)COc3ccc(Cl)cc3)CC2)c2nc(CCc3ccc(Br)cc3)sc2n1 [Example 299, 1-(4-(5-amino-2-(4-bromophenethyl)thiazolo[5,4-d]pyrimidin-7-yl)piperazin-1-yl)-2-(4-chlorophenoxy)ethanone] | 3110 nM |
| Nc1nc(N2CC[C@@H](NC(=O)COc3ccc(Cl)cc3)C2)c2nc(CCc3ccc(F)cc3)sc2n1 [Example 143, 5-amino-2-[2-(4-fluorophenyl)ethyl]-7-(3-(R)-[2-(4-chlorophenoxy)-acetylamino]pyrrolidin-1-yl)-thiazolo[5,4-d]pyrimidine] | > 10000 nM |
| Cc1cccc(NC(=O)N2CCN(c3nc(N)nc4sc(-c5ccc(F)cc5)nc34)CC2)c1 [Example 43, 4-(5-amino-2-(4-fluorophenyl)thiazolo[5,4-d]pyrimidin-7-yl)-N-m-tolylpiperazine-1-carboxamide] | 300 nM |
| Nc1nc(N2CCN(C(=O)COc3ccc(Cl)cc3)CC2)c2nc(SCCc3ccccc3)[nH]c2n1 [Example 427, 1-(4-(2-amino-8-(phenethylthio)-9H-purin-6-yl)piperazin-1-yl)-2-(4-chlorophenoxy)ethanone] | > 10000 nM |
| Nc1nc(N2CCN(C(=O)COc3ccc(Cl)cc3)CC2)c2nc(-c3ccc(F)cc3)oc2n1 [Example 169, 1-(4-(5-amino-2-(4-fluorophenyl)oxazolo[5,4-d]pyrimidin-7-yl)piperazin-1-yl)-2-(4-chlorophenoxy)ethanone] | 3000 nM |
| Cc1cccc(NC(=O)N2CCN(c3nc(N)nc4sc(-c5ccc(F)cc5)cc34)CC2)c1 [Example 359, 4-(2-amino-6-(4-fluorophenyl)thieno[2,3-d]pyrimidin-4-yl)-N-m-tolylpiperazine-1-carboxamide] | 2800 nM |
| Nc1nc(N2CCN(S(=O)(=O)Cc3ccccc3)CC2)c2cc(-c3ccc(F)cc3)sc2n1 [Example 344, 4-(4-(benzylsulfonyl)piperazin-1-yl)-6-(4-fluorophenyl)thieno[2,3-d]pyrimidin-2-amine] | > 10000 nM |
| Cc1ccc(CCc2nc3c(N4CCN(C(=O)COc5ccc(Cl)cc5)CC4)nc(N)nc3s2)cc1 [Example 260, 1-(4-(5-amino-2-(4-methylphenethyl)thiazolo[5,4-d]pyrimidin-7-yl)piperazin-1-yl)-2-(4-chlorophenoxy)ethanone] | 820 nM |
| CC(C)(C)c1nc2c(N3CCN(C(=O)COc4ccc(Cl)cc4)CC3)nc(N)nc2[nH]1 [Example 399, 1-(4-(2-amino-8-tert-butyl-9H-purin-6-yl)piperazin-1-yl)-2-(4-chlorophenoxy)ethanone] | 6310 nM |
| COc1ccc(OCC(=O)N2CCN(c3nc(N)nc4sc(CCc5ccc(OC)c(OC)c5)nc34)CC2)cc1 [Example 257, 1-(4-(5-amino-2-(3,4-dimethoxyphenethyl)thiazolo[5,4-d]pyrimidin-7-yl)piperazin-1-yl)-2-(4-methoxyphenoxy)ethanone] | 1140 nM |
| Nc1nc(N2CCN(C(=O)COc3ccc(Cl)cc3)CC2)c2nc(-c3cccc(Cl)c3)[nH]c2n1 [Example 393, 1-(4-(2-amino-8-(3-chlorophenyl)-9H-purin-6-yl)piperazin-1-yl)-2-(4-chlorophenoxy)ethanone] | 660 nM |
| CC(=O)c1ccc(OCC(=O)N2CCN(c3nc(N)nc4sc(CCc5ccc(F)cc5)nc34)CC2)cc1 [Example 227, 2-(4-acetylphenoxy)-1-(4-(5-amino-2-(4-fluorophenethyl)thiazolo[5,4-d]pyrimidin-7-yl)piperazin-1-yl)ethanone] | 610 nM |
| Cn1c(-c2ccc(F)cc2)nc2c(N3CCN(C(=O)COc4ccc(Cl)cc4)CC3)nc(N)nc21 [Example 430, 1-(4-(2-amino-8-(4-fluorophenyl)-9-methyl-9H-purin-6-yl)piperazin-1-yl)-2-(4-chlorophenoxy)ethanone] | 360 nM |
| Nc1nc(N2CCN(C(=O)COc3ccc(Cl)cc3)CC2)c2nc(-c3ccc(F)cc3)sc2n1 [Example 45, 1-(4-(5-amino-2-(4-fluorophenyl)thiazolo[5,4-d]pyrimidin-7-yl)piperazin-1-yl)-2-(4-chlorophenoxy)ethanone] | 300 nM |
| CN(C(=O)CN1CCN(c2nc(N)nc3oc(CCc4ccc(F)cc4)nc23)CC1)c1ccccc1 [Example 198, 5-amino-2-[2-(4-fluorophenyl)ethyl]-7-(4-[(methylphenyl-carbamoyl)methyl]piperazin-1-yl)-oxazolo[5,4-d]pyrimidine] | > 10000 nM |
| Nc1nc(N2CCN(C(=O)CCc3ccccc3)CC2)c2nc(CCc3ccc(F)cc3)sc2n1 [Example 136, 5-amino-2-[2-(4-fluorophenyl)ethyl]-7-[4-(3-phenylpropionyl)piperazin-1-yl]-thiazolo[5,4-d]pyrimidine] | > 10000 nM |
